Data from patent publication US7250442B2, “Dihydroindol-2-one derivatives as steroid hormone nuclear receptor modulators” (Eli Lilly and Company, priority 2003, dated 2007).

Target: T1, human MR (Homo sapiens, UniProt P08235)
T1 construct: The full length human MR gene is cloned from a human kidney or human brain cDNA library; made in house; host or cells: Sf9 insect cells (baculovirus, pAcHLT transfer vector)
T1 sequence (P08235 1-984): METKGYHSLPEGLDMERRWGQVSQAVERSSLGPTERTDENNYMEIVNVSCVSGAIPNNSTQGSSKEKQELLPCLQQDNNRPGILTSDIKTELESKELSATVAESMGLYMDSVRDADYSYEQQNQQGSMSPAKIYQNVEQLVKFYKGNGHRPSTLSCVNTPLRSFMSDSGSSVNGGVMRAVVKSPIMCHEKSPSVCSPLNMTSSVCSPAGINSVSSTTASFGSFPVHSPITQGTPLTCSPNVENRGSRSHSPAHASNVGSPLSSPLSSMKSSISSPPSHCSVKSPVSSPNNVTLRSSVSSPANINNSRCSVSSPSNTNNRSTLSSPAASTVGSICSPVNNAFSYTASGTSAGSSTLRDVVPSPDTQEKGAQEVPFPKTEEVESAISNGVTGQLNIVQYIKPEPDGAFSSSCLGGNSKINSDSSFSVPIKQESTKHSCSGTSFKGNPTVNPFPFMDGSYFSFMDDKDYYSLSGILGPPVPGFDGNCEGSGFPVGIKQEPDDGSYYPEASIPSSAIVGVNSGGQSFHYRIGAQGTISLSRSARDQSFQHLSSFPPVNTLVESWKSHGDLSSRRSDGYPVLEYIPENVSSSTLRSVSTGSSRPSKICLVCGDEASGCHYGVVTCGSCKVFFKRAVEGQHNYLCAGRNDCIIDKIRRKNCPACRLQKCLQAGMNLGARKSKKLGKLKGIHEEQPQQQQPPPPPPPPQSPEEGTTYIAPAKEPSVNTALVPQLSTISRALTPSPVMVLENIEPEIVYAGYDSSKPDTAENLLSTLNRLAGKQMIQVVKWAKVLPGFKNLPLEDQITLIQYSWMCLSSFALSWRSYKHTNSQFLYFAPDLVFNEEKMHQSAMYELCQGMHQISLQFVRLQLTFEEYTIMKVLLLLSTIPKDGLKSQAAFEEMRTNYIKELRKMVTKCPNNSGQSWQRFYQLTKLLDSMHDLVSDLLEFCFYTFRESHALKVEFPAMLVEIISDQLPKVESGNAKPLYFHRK
Assay: Mineralocorticoid Receptor Binding Assay ([3H]-aldosterone displacement)
Settings: full length human MR expressed in Sf9 cells, 0.5 nM [3H]-aldosterone
Protocol: Mineralocorticoid Receptor Binding Assay:
The full length human MR gene is cloned from a human kidney or human brain cDNA library. Briefly, using synthetic oligonucleotide primers (Eli Lilly and Company, Indianapolis) directed to nucleotides 20-54 and 3700-3666 of the human MR, polymerase chain reaction (PCR) is performed under standard conditions using a human cDNA library. The PCR reaction is performed in a final volume of 50 μl containing about 1 μl of a 50× stock solution of polymerase; about 1 μl of a 50× stock solution of dNTP; about 5 μl of an appropriate PCR buffer; about 1 μl of each primer; about 5 μl of a H. kidney or H. brain cDNA library; and about 36 μl of water. The reaction is allowed to denature for about 30 seconds at 95 degrees Celsius, anneal for about 30 seconds at 55 degrees Celsius, and extend for about 5 minutes at 72 degrees Celsius, the sequence being repeated for a total of about 35 cycles. The desired PCR product (3.68 Kb) is confirmed by gel electrophoresis and subsequently cut from the gel and stored at about −20 degrees Celsius until extraction. To extract the cDNA product from the agarose gel, the QIAEX II Gel Extraction protocol (QIAGEN, Inc.) is employed according to the manufacturer's instructions. Following extraction, the MR cDNA is cloned into an appropriate cloning vector (Zero Blunt TOPO PCR Cloning Kit (Invitrogen, Inc.) and a pAcHLT-baculovirus transfer vector (B.D./Pharminogen), then expressed in SF9 insect cells, essentially according to manufacturer's instructions. Sf9 cells are grown at a scale where gram quantity cell pellets are obtained for subsequent use in the MR binding assay. Harvested cell pellets are lysed by repeated freeze-thaw cycles (about 4) in a suitable lysis buffer then centrifuged at about 1×10^3 G (with the supernatant being saved for future assays).
MR binding assays are performed in a final total volume of about 250 μl containing about 20-25 μg of protein and 0.5 nM of [^3H]-aldosterone plus varying concentrations of test compound or vehicle. The assay binding buffer consists of 30 mM sodium molybdate, 30 mM of TRIS-HCl, 5 mM sodium phosphate, 5 mM sodium pyrophosphate, and about 10% glycerol, pH=7.5.
Briefly, assays are prepared at RT in 96-well Falcon 3072 plates, each well containing 210 μl of binding buffer, 10 μl of [^3H]-aldosterone, 10 μl of test compound/vehicle, and 20 μl of the resuspended receptor protein extract. Incubations are carried out at 4 degrees Celsius with shaking for about 16 hours. 200 μl aliquots of each incubation are filtered onto Millipore HA 0.45 micron 96-well filter plates, pre-moistened with cold 30 mM TRIS-HCl. The filter plates are suctioned dry with vacuum and immediately washed 3× with cold 30 mM TRIS-HCl. The plates are then punched out and the amount of receptor-ligand complex is determined by liquid scintillation counting using 4 ml of Ready Protein Plus™ liquid scintillation cocktail.
IC50 values (defined as the concentration of test compound required to decrease [^3H]-aldosterone binding by 50%) are then determined. Ki values for each respective test compound can then be calculated by application of the Cheng-Prusoff equation as described in Cheng et al., Relationship Between The Inhibition Constant (Ki) and The Concentration of Inhibitor Which Causes 50% Inhibition (IC50) of an Enzymatic Reaction, Biochem. Pharmacol., 22: 3099-31088; (1973).

Question: With `Cc1cc(C2(c3cc(C)c(O)c(C)c3)C(=O)N(Cc3ccccc3F)c3ccccc32)cc(C)c1O` [Example 50, 1-(2-Fluoro-benzyl)-3,3-bis-(4-hydroxy-3,5-dimethyl-phenyl)-1,3-dihydro-indol-2-one] as the compound, how does the Ki read?
Answer: ≤ 500 nM

Question: With `Cc1cc(C2(c3cc(C)c(O)c(C)c3)C(=O)N(Cc3ccccc3C(F)(F)F)c3ccccc32)cc(C)c1O` [Example 53, 3,3-Bis-(4-hydroxy-3,5-dimethyl-phenyl)-1-(2-trifluoromethyl-benzyl)-1,3-dihydro-indol-2-one] as the compound, how does the Ki read?
Answer: ≤ 500 nM

Question: With `Cc1cc(C2(c3cc(C)c(O)c(C)c3)C(=O)N(Cc3ccccc3-c3ccccc3)c3ccccc32)cc(C)c1O` [Example 54, 1-Biphenyl-2-ylmethyl-3,3-bis-(4-hydroxy-3,5-dimethyl-phenyl)-1,3-dihydro-indol-2-one] as the compound, how does the Ki read?
Answer: ≤ 500 nM

Question: How did the Ki turn out when `COc1cccc(CN2C(=O)C(c3cc(C)c(O)c(C)c3)(c3cc(C)c(O)c(C)c3)c3ccccc32)c1` [Example 56, 3,3-Bis-(4-hydroxy-3,5-dimethyl-phenyl)-1-(3-methoxy-benzyl)-1,3-dihydro-indol-2-one] was run?
Answer: ≤ 500 nM

Question: How did the Ki turn out when `Cc1cc(C2(c3cc(C)c(O)c(C)c3)C(=O)N(Cc3ccc(Br)cc3)c3ccccc32)cc(C)c1O` [Example 58, 1-(4-Bromo-benzyl)-3,3-bis-(4-hydroxy-3,5-dimethyl-phenyl)-1,3-dihydro-indol-2-one] was run?
Answer: ≤ 500 nM

Question: With `Cc1cc(C2(c3cc(C)c(O)c(C)c3)C(=O)N(Cc3ccc([N+](=O)[O-])cc3)c3ccccc32)cc(C)c1O` [Example 62, 3,3-Bis-(4-hydroxy-3,5-dimethyl-phenyl)-1-(4-nitro-benzyl)-1,3-dihydro-indol-2-one] as the compound, how does the Ki read?
Answer: ≤ 500 nM

Question: With `Cc1cc(C2(c3cc(C)c(O)c(C)c3)C(=O)N(Cc3ccccc3Br)c3ccccc32)cc(C)c1O` [Example 63, 1-(2-Bromo-benzyl)-3,3-bis-(4-hydroxy-3,5-dimethyl-phenyl)-1,3-dihydro-indol-2-one] as the compound, how does the Ki read?
Answer: ≤ 500 nM

Question: `Cc1cc(C2(c3cc(C)c(O)c(C)c3)C(=O)N(Cc3cccc(Br)c3)c3ccccc32)cc(C)c1O` [Example 64, 1-(3-Bromo-benzyl)-3,3-bis-(4-hydroxy-3,5-dimethyl-phenyl)-1,3-dihydro-indol-2-one] was tested. Which Ki did it give?
Answer: ≤ 500 nM

Question: Which Ki does the source give for `Cc1cc(C2(c3cc(C)c(O)c(C)c3)C(=O)N(Cc3ccccc3[N+](=O)[O-])c3ccccc32)cc(C)c1O` [Example 65, 3,3-Bis-(4-hydroxy-3,5-dimethyl-phenyl)-1-(2-nitro-benzyl)-1,3-dihydro-indol-2-one] here?
Answer: ≤ 500 nM

Question: For `Cc1cc(C2(c3cc(C)c(O)c(C)c3)C(=O)N(Cc3cccc(F)c3F)c3ccccc32)cc(C)c1O` [Example 66, 1-(2,3-Difluoro-benzyl)-3,3-bis-(4-hydroxy-3,5-dimethyl-phenyl)-1,3-dihydro-indol-2-one], which Ki is on record?
Answer: ≤ 500 nM

Question: For `Cc1cc(C2(c3cc(C)c(O)c(C)c3)C(=O)N(Cc3ccc(OC(F)(F)F)cc3)c3ccccc32)cc(C)c1O` [Example 67, 3,3-Bis-(4-hydroxy-3,5-dimethyl-phenyl)-1-(4-trifluoromethoxy-benzyl)-1,3-dihydro-indol-2-one], which Ki is on record?
Answer: ≤ 500 nM

Question: Which Ki does the source give for `Cc1cc(C2(c3cc(C)c(O)c(C)c3)C(=O)N(Cc3ccc(C(F)(F)F)cc3C(F)(F)F)c3ccccc32)cc(C)c1O` [Example 68, 1-(2,4-Bis-trifluoromethyl-benzyl)-3,3-bis-(4-hydroxy-3,5-dimethyl-phenyl)-1,3-dihydro-indol-2-one] here?
Answer: ≤ 500 nM

Question: `Cc1cc(C2(c3cc(C)c(O)c(C)c3)C(=O)N(Cc3cccc(C)c3F)c3ccccc32)cc(C)c1O` [Example 70, 1-(2-Fluoro-3-methyl-benzyl)-3,3-bis-(4-hydroxy-3,5-dimethyl-phenyl)-1,3-dihydro-indol-2-one] was tested. Which Ki did it give?
Answer: ≤ 500 nM

Question: With `Cc1cc(C2(c3cc(C)c(O)c(C)c3)C(=O)N(Cc3ccc([N+](=O)[O-])o3)c3ccccc32)cc(C)c1O` [Example 73, 3,3-Bis-(4-hydroxy-3,5-dimethyl-phenyl)-1-(5-nitro-furan-2-ylmethyl)-1,3-dihydro-indol-2-one] as the compound, how does the Ki read?
Answer: ≤ 500 nM
